Reference: patent publication US12077555B2, “STAT degraders and uses thereof” (Kymera Therapeutics, Inc., priority 2019, dated 2024)
Read-outs that look alike come from different tables or passages of the source.

Target: STAT3 (Homo sapiens, UniProt P40763)
Test: STAT3 HiBiT degradation assay in transfected A549 cells
Format: cell-based
Design: expressed in transfected cells; host or cells: A549
How it was run: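 Transfected A549 cells (~2000/well) plated 24 h, then treated 24 h at 37 °C, 5% CO2 with a 3-fold, 10-point compound dilution. HiBiT lytic luminescence read after 10 min at room temperature; remaining STAT3 normalized to negative and positive controls, four-parameter fit. DC50 binned A <0.01, B 0.01–0.1, C 0.1–1.0, D >1.0 µM.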

[1] = A549, 24 h; read-out: STAT3 HiBiT A549 degradation 24 h: Average external-Abs DC50

Chain of STAT3 (P40763 whole entry): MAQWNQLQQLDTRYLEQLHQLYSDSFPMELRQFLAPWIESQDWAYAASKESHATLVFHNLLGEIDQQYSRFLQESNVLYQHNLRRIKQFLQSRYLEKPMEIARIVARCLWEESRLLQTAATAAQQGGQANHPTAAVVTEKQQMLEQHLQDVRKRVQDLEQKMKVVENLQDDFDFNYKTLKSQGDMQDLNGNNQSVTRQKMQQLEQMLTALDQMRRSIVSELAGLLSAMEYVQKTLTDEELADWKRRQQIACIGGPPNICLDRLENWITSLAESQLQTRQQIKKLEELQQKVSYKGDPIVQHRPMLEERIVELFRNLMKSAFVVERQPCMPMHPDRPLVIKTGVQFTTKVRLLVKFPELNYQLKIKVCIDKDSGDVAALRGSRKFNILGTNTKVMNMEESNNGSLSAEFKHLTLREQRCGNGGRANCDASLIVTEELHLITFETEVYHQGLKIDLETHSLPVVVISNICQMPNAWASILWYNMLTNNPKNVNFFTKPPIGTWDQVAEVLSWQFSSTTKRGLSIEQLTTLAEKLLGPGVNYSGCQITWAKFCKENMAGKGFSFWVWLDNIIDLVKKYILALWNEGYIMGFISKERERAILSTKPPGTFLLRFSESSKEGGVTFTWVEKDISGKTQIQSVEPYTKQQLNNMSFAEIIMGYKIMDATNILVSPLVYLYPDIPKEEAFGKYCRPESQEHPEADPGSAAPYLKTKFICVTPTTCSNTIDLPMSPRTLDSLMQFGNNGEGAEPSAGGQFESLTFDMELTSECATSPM

SMILES	DC50 [1] [nM]	DC50 (read-out: STAT3 HiBiT A549 degradation 24 h: Average external-Abs DC50; A549, 24 h) [nM]
Cc1ncsc1-c1ccc([C@H](C)NC(=O)[C@@H]2C[C@@H](O)CN2C(=O)[C@@H](NC(=O)CCCCCc2cccc(NC(=O)[C@H](CCC(N)=O)NC(=O)[C@@H]3Cc4cccc5c4N3C(=O)[C@@H](NC(=O)c3cc4cc(C(=O)P(=O)(O)O)ccc4[nH]3)CC5)c2Cl)C(C)(C)C)cc1 [Compound I-249, 2-[[(2S,11S)-2-[[(1S)-3-carbamoyl-1-[[2-chloro-3-(5-[[(2S)-1-[(2S,4R)-4-hydroxy-2-[[(1S)-1-[4-(4-methyl-1,3-thiazol-5-yl)phenyl]ethyl]carbamoyl]pyrrolidin-1-yl]-3,3-dimethyl-1-oxobutan-2-yl]carbamoyl]pentyl)phenyl]carbamoyl]propyl]carbamoyl]-12-oxo-1-azatricyclo[6.4.1.0^[4,13]]trideca-4(13),5,7-trien-11-yl]carbamoyl]-1H-indole-5-carbonylphosphonic acid]	10 to 100	–
Cc1ncsc1-c1ccc([C@H](C)NC(=O)[C@@H]2C[C@@H](O)CN2C(=O)[C@@H](NC(=O)CCCCCc2cccc(NC(=O)[C@H](CCC(N)=O)NC(=O)[C@@H]3Cc4cccc5c4N3C(=O)[C@@H](NC(=O)c3cc4cc(C(=O)P(=O)(O)O)ccc4[nH]3)CC5)c2F)C(C)(C)C)cc1 [Compound I-250, 2-[[(2S,11S)-2-[[(1S)-3-carbamoyl-1-[[2-fluoro-3-(5-[[(2S)-1-[(2S,4R)-4-hydroxy-2-[[(1S)-1-[4-(4-methyl-1,3-thiazol-5-yl)phenyl]ethyl]carbamoyl]pyrrolidin-1-yl]-3,3-dimethyl-1-oxobutan-2-yl]carbamoyl]pentyl)phenyl]carbamoyl]propyl]carbamoyl]-12-oxo-1-azatricyclo[6.4.1.0^[4,13]]trideca-4(13),5,7-trien-11-yl]carbamoyl]-1H-indole-5-carbonylphosphonic acid]	10 to 100	–
Cc1ccc(OC[C@H](CCC(N)=O)NC(=O)[C@@H]2Cc3cccc4c3N2C(=O)[C@@H](NC(=O)c2cc3cc(C(=O)P(=O)(O)O)ccc3[nH]2)CC4)c(F)c1CCCCCC(=O)N[C@H](C(=O)N1C[C@H](O)C[C@H]1C(=O)N[C@@H](C)c1ccc(-c2scnc2C)cc1)C(C)(C)C [Compound I-251]	< 10	–
Cc1ncsc1-c1ccc([C@H](C)NC(=O)[C@@H]2C[C@@H](O)CN2C(=O)[C@@H](NC(=O)CCCCCc2c(F)ccc(OC[C@H](CCC(N)=O)NC(=O)[C@@H]3Cc4cccc5c4N3C(=O)[C@@H](NC(=O)c3cc4cc(C(=O)P(=O)(O)O)ccc4[nH]3)CC5)c2F)C(C)(C)C)cc1 [Compound I-252]	< 10	–
Cc1ncsc1-c1ccc([C@H](C)NC(=O)[C@@H]2C[C@@H](O)CN2C(=O)[C@@H](NC(=O)CCCc2cccc(OC[C@H](CCC(N)=O)NC(=O)[C@@H]3Cc4cccc5c4N3C(=O)[C@@H](NC(=O)c3cc4cc(C(=O)P(=O)(O)O)ccc4[nH]3)CC5)c2Cl)C(C)(C)C)cc1 [Compound I-253]	< 10	–
Cc1ncsc1-c1ccc([C@H](C)NC(=O)[C@@H]2C[C@@H](O)CC2C(=O)[C@@H](NC(=O)OCCCCc2cccc(N(C)CC(CCC(N)=O)NC(=O)[C@@H]3Cc4cccc5c4N3C(=O)[C@@H](NC(=O)c3cc4cc(C(=O)P(=O)(O)O)ccc4[nH]3)CC5)c2F)C(C)(C)C)cc1 (some centres unmarked) [Compound I-254]	100 to 1000	–
Cn1c(=O)n(C(CCC(N)=O)C(=O)O)c2ccc(C[C@H]3CC[C@@H](CC(=O)N4CC[C@H]5CC[C@@H](C(=O)N[C@@H](CCC(N)=O)C(=O)NC(c6ccccc6)c6ccccc6)N5C(=O)[C@@H](NC(=O)c5cc6cc(C(=O)P(=O)(O)O)ccc6[nH]5)C4)CC3)cc21 (stereo partly drawn) [Compound I-255, 4-carbamoyl-2-(3-methyl-2-oxo-5-[[(1s,4s)-4-[2-[(5S,8S,10aR)-8-[[(1S)-3-carbamoyl-1-(diphenylmethylcarbamoyl)propyl]carbamoyl]-6-oxo-5-[5-(phosphonocarbonyl)-1H-indole-2-amido]-octahydropyrrolo[1,2-a][1,5]diazocin-3-yl]-2-oxoethyl]cyclohexyl]methyl]-1,3-benzodiazol-1-yl)butanoic acid]	–	> 1000
Cc1ncsc1-c1ccc([C@H](C)NC(=O)[C@@H]2C[C@@H](O)CN2C(=O)[C@@H](NC(=O)Cc2cccc(OC[C@H](CCC(N)=O)NC(=O)[C@@H]3Cc4cccc5c4N3C(=O)[C@@H](NC(=O)c3cc4cc(C(=O)P(=O)(O)O)ccc4[nH]3)CC5)c2)C(C)(C)C)cc1 [Compound I-256, 2-[[(2S,11S)-2-[[(2S)-4-carbamoyl-1-[3-([[(2S)-1-[(2S,4R)-4-hydroxy-2-[[(1S)-1-[4-(4-methyl-1,3-thiazol-5-yl)phenyl]ethyl]carbamoyl]pyrrolidin-1-yl]-3,3-dimethyl-1-oxobutan-2-yl]carbamoyl]methyl)phenoxy]butan-2-yl]carbamoyl]-12-oxo-1-azatricyclo[6.4.1.0^[4,13]]trideca-4(13),5,7-trien-11-yl]carbamoyl]-1H-indole-5-carbonylphosphonic acid]	> 1000	–
Cc1ncsc1-c1ccc([C@H](C)NC(=O)[C@@H]2C[C@@H](O)CN2C(=O)[C@@H](NC(=O)CCCCCc2cc(Cl)cc(NC(=O)[C@H](CCC(N)=O)NC(=O)[C@@H]3Cc4cccc5c4N3C(=O)[C@@H](NC(=O)c3cc4cc(C(=O)P(=O)(O)O)ccc4[nH]3)CC5)c2)C(C)(C)C)cc1 [Compound I-257, 2-[[(2S,11S)-2-[[(1S)-3-carbamoyl-1-[[3-chloro-5-(5[[(2S)-1-[(2S,4R)-4-hydroxy-2-[[(1S)-1-[4-(4-methyl-1,3-thiazol-5-yl)phenyl]ethyl]carbamoyl]pyrrolidin-1-yl]-3,3-dimethyl-1-oxobutan-2-yl]carbamoyl]pentyl)phenyl]carbamoyl]propyl]carbamoyl]-12-oxo-1-azatricyclo[6.4.1.0^[4,13]]trideca-4(13),5,7-trien-11-yl]carbamoyl]-1H-indole-5-carbonylphosphonic acid]	10 to 100	–
Cc1cc(CCCCCC(=O)N[C@H](C(=O)N2C[C@H](O)C[C@H]2C(=O)N[C@@H](C)c2ccc(-c3scnc3C)cc2)C(C)(C)C)cc(NC(=O)[C@H](CCC(N)=O)NC(=O)[C@@H]2Cc3cccc4c3N2C(=O)[C@@H](NC(=O)c2cc3cc(C(=O)P(=O)(O)O)ccc3[nH]2)CC4)c1 [Compound I-258, 2-[[(2S,11S)-2-[[(1S)-3-carbamoyl-1-[[3-(5-[[(2S)-1-[(2S,4R)-4-hydroxy-2-[[(1S)-1-[4-(4-methyl-1,3-thiazol-5-yl)phenyl]ethyl]carbamoyl]pyrrolidin-1-yl]-3,3-dimethyl-1-oxobutan-2-yl]carbamoyl]pentyl)-5-methylphenyl]carbamoyl]propyl]carbamoyl]-12-oxo-1-azatricyclo[6.4.1.0^[4,13]]trideca-4(13),5,7-trien-11-yl]carbamoyl]-1H-indole-5-carbonylphosphonic acid]	< 10	–
Cc1ncsc1-c1ccc([C@H](C)NC(=O)[C@@H]2C[C@@H](O)CN2C(=O)[C@@H](NC(=O)CCCCCc2cccc(NC(=O)[C@H](CCC(N)=O)NC(=O)[C@@H]3Cc4cccc5c4N3C(=O)[C@@H](NC(=O)c3cc4cc(C(=O)P(=O)(O)O)ccc4[nH]3)CC5)c2C)C(C)(C)C)cc1 [Compound I-259]	100 to 1000	–
Cc1ncsc1-c1ccc([C@H](C)NC(=O)[C@@H]2C[C@@H](O)CN2C(=O)[C@@H](NC(=O)CCc2cccc(OC[C@H](CCC(N)=O)NC(=O)[C@@H]3Cc4cccc5c4N3C[C@@H](CC(=O)C3Cc4cc(C(=O)P(=O)(O)O)ccc4N3)CC5)c2)C(C)(C)C)cc1 (stereo partly drawn) [Compound I-260, diammonium 2-[[(2S,11S)-2-[[(2S)-4-carbamoyl-1-[3-(2-[[(2S)-1-[(2S,4R)-4-hydroxy-2-[[(1S)-1-[4-(4-methyl-1,3-thiazol-5-yl)phenyl]ethyl]carbamoyl]pyrrolidin-1-yl]-3,3-dimethyl-1-oxobutan-2-yl]carbamoyl]ethyl)phenoxy]butan-2-yl]carbamoyl]-12-oxo-1-azatricyclo[6.4.1.0^[4,13]]trideca-4(13),5,7-trien-11-yl]carbamoyl]-1H-indole-5-carbonylphosphonate]	> 1000	–
CC(=O)N1CC[C@H]2CC[C@@H](C(=O)N[C@@H](CCC(N)=O)COc3cccc(CCCCC(=O)N[C@H](C(=O)N4C[C@H](O)C[C@H]4C(=O)N[C@@H](C)c4ccc(-c5scnc5C)cc4)C(C)(C)C)c3F)N2C(=O)[C@@H](NC(=O)c2cc3cc(C(=O)P(=O)(O)O)ccc3[nH]2)C1 [Compound I-263, 2-[[(5S,8S,10aR)-3-acetyl-8-[[(2S)-4-carbamoyl-1-[2-fluoro-3-(4-[[(2S)-1-[(2S,4R)-4-hydroxy-2-[[(1S)-1-[4-(4-methyl-1,3-thiazol-5-yl)phenyl]ethyl]carbamoyl]pyrrolidin-1-yl]-3,3-dimethyl-1-oxobutan-2-yl]carbamoyl]butyl)phenoxy]butan-2-yl]carbamoyl]-6-oxo-octahydropyrrolo[1,2-a][1,5]diazocin-5-yl]carbamoyl]-1H-indole-5-carbonylphosphonic acid]	< 10	–
Cc1ncsc1-c1ccc([C@H](C)NC(=O)[C@@H]2C[C@@H](O)CN2C(=O)[C@@H](NC(=O)CCCCCc2cc(F)cc(NC(=O)[C@H](CCC(N)=O)NC(=O)[C@@H]3Cc4cccc5c4N3C(=O)[C@@H](NC(=O)c3cc4cc(C(=O)P(=O)(O)O)ccc4[nH]3)CC5)c2)C(C)(C)C)cc1 [Compound I-264, 63 2-[[(2S,11S)-2-[[(1S)-3-carbamoyl-1-[[3-fluoro-5-(5-[[(2S)-1-[(2S,4R)-4-hydroxy-2-[[(1S)-1-[4-(4-methyl-1,3-thiazol-5-yl)phenyl]ethyl]carbamoyl]pyrrolidin-1-yl]-3,3-dimethyl-1-1-oxobutan-2-yl]carbamoyl]pentyl)phenyl]carbamoyl]propyl]carbamoyl]-12-oxo-1-azatricyclo[6.4.1.0^[4,13]]trideca-4(13),5,7-trien-11-yl]carbamoyl]-1H-indole-5-carbonylphosphonic acid 7]	10 to 100	–
